Patent US6894046B2, “IL-5 inhibiting 6-azauracil derivatives” (Janssen Pharmaceutica N.V., priority 1998, dated 2005)

System: IL-5 production in human blood
Test: In vitro inhibition of IL-5 production in human blood (phytohemagglutinin-stimulated whole blood, ELISA)
Type: cell-based
Details: test dose 1×10^−6 M, phytohemagglutinin 2 μg/ml, 48 hours; for inhibition at 1 µM: read-out: % inh. (percentage inhibition of IL-5 production)
Method: EXAMPLE C.1: IN VITRO INHIBITION OF IL-5 PRODUCTION IN HUMAN BLOOD
Peripheral blood from healthy male donors was drawn into heparinized syringes (12.5 U heparin/ml). Blood samples were three-fold diluted in RMPI 1640 medium (Life Technologies, Belgium) supplemented with 2 mM L-glutamine, 100 U/ml penicillin and 100 μg/ml streptomycin, and 300 μl fractions were distributed in 24-well multidisc plates. Blood samples were preincubated (60 minutes at 37° C.) in a humidified 6% CO2-atmosphere with 100 μl of drug solvent (final concentration 0.02% dimethylsulfoxide in RPMI 1640) or with 100 μl of an appropriate dose of test compound before being stimulated by the addition of 100 μl of phytohemagglutinin HA17 (Murex, UK) at a final concentration of 2 μg/ml. After 48 hours, cell-free supernatant fluids were collected by centrifugation and stored at −70° C. until tested for the presence of IL-5.
IL-5 measurements were conducted as described in Van Wauwe et al. (1996, Inflamm Res, 45, 357-363) on page 358 using ELISA.
Table 6 lists the percentage inhibition of IL-5 production (column “% inh”) at a test dose of 1×10^−6 M, or in case the percentage inhibition is marked with an “*” 1×10^−5 M, for the compounds of the present invention.

Structure (SMILES) | % inh. (percentage inhibition of IL-5 production) [%] | inhibition at 1 µM [%]
CC(C)(c1nc(-c2ccccc2Cl)c(C=O)s1)c1c(Cl)cc(-n2ncc(=O)[nH]c2=O)cc1Cl [Compound 46] | 44 | –
CCc1sc(C(C)(C)c2c(Cl)cc(-n3ncc(=O)[nH]c3=O)cc2Cl)nc1-c1ccc(-c2ccccc2)cc1 [Compound 48] | 58 | –
CC(C)(c1nc(-c2ccccc2)c(-c2cccc([N+](=O)[O-])c2)s1)c1c(Cl)cc(-n2ncc(=O)[nH]c2=O)cc1Cl [Compound 49] | 95 | –
CC(C)(c1nc(-c2ccccc2)c(-c2cccc(N)c2)s1)c1c(Cl)cc(-n2ncc(=O)[nH]c2=O)cc1Cl [Compound 50, 2-[4-[1-[5-(3-aminophenyl)4-phenyl-2-thiazolyl]-1-methylethyl]-3,5-dichlorophenyl]-1,2,4-triazine-3,5(2H,4H)-dione] | – | 91
CC(=O)Nc1cccc(-c2sc(C(C)(C)c3c(Cl)cc(-n4ncc(=O)[nH]c4=O)cc3Cl)nc2-c2ccccc2)c1 [Compound 51, N-[3-[2-[1-[2,6-dichloro-4-(4,5-dihydro-3,5-dioxo-1,2,4-triazin-2(3H)-yl)phenyl]-1-methylethyl]4-phenyl-5-thiazolyl]phenyl]-acetamide] | – | 73
CC(C)(c1nc(-c2ccccc2)c(-c2cccc(NC(N)=O)c2)s1)c1c(Cl)cc(-n2ncc(=O)[nH]c2=O)cc1Cl [Compound 54, N-[3-[2-[1-[2,6-dichloro-4-(4,5-dihydro-3,5-dioxo-1,2,4-triazin-2(3H)-yl)phenyl]-1-methylethyl]-4-phenyl-5-thiazolyl]phenyl]urea] | – | 61
COc1cccc(-c2sc(C(C)(C)c3c(Cl)cc(-n4ncc(=O)[nH]c4=O)cc3Cl)nc2-c2ccccc2)c1 [Compound 55] | 92 | –
CC(C)(c1nc(-c2ccccc2Cl)c(-c2cccc(C(=O)O)c2)s1)c1c(Cl)cc(-n2ncc(=O)[nH]c2=O)cc1Cl [Compound 56] | −4 | –
CC(C)(c1nc(-c2ccccc2Cl)c(-c2cccc(C#N)c2)s1)c1c(Cl)cc(-n2ncc(=O)[nH]c2=O)cc1Cl [Compound 57] | 85 | –
CC(C)(c1nc(-c2ccccc2)c(-c2cccc(O)c2)s1)c1c(Cl)cc(-n2ncc(=O)[nH]c2=O)cc1Cl [Compound 58, 2-[3,5-dichloro-4-[1-[5-(3-hydroxyphenyl)4-phenyl-2-thiazolyl]-1-methyl-ethyl]phenyl]-1,2,4-triazine-3,5(2H,4H)-dione] | – | 84
CC(C)(c1nc(-c2ccccc2Cl)c(-c2cccc(CO)c2)s1)c1c(Cl)cc(-n2ncc(=O)[nH]c2=O)cc1Cl [Compound 59, 2-[3,5-dichloro-4-[1-[4-(2-chlorophenyl)-5-[3-(hydroxymethyl)phenyl]-2-thiazolyl]-1-methylethyl]phenyl]-1,2,4-triazine-3,5(2H,4H)-dione] | – | 82
CC(C)(c1nc(-c2ccccc2)c(-c2cccc(NS(N)(=O)=O)c2)s1)c1c(Cl)cc(-n2ncc(=O)[nH]c2=O)cc1Cl [Compound 60] | 28 | –
CN1CCN(C(=O)c2cccc(-c3sc(C(C)(C)c4c(Cl)cc(-n5ncc(=O)[nH]c5=O)cc4Cl)nc3-c3ccccc3Cl)c2)CC1 [Compound 61, 1-[3-[2-[1-[2,6-dichloro-4-(4,5-dihydro-3,5-dioxo-1,2,4-triazin-2(3H)-yl)phenyl]-1-methylethyl]-4-(2-chlorophenyl)-5-thiazolyl]benzoyl]-4-methylpiperazine] | – | 29
CC(C)(c1cc(Cl)c(-n2ncc(=O)[nH]c2=O)c(Cl)c1)c1nc(-c2ccccc2Cl)c(-c2cccc(C(N)=O)c2)s1 [Compound 62, 3-[2-[1-[3,5-dichloro-4-(4,5-dihydro-3,5-dioxo-1,2,4-triazin-2(3H)-yl)phenyl]-1-methylethyl]-4-(2-chlorophenyl)-5-thiazolyl]benzamide] | – | 53
CC(C)OC(=O)c1cccc(-c2sc(C(C)(C)c3c(Cl)cc(-n4ncc(=O)[nH]c4=O)cc3Cl)nc2-c2ccccc2Cl)c1 [Compound 65] | 36 | –
CC(C)(c1nc(-c2ccccc2)c(-c2cccc(OS(N)(=O)=O)c2)s1)c1c(Cl)cc(-n2ncc(=O)[nH]c2=O)cc1Cl [Compound 66, 3-[2-[1-[2,6-dichloro-4-(4,5-dihydro-3,5-dioxo-1,2,4-triazin-2(3H)-yl)phenyl]-1-methylethyl]-4-phenyl-5-thiazolyl]phenylsulfamate (ester)] | 53 | –
COCCNCc1cccc(-c2sc(C(C)(C)c3c(Cl)cc(-n4ncc(=O)[nH]c4=O)cc3Cl)nc2-c2ccccc2Cl)c1.Cl [Compound 69] | 45 | –
CC(C)(c1nc(-c2ccccc2)c(-c2cccc(NC(=O)N3CCNCC3)c2)s1)c1c(Cl)cc(-n2ncc(=O)[nH]c2=O)cc1Cl [Compound 71, N-[3-[2-[1-[2,6-dichloro-4-(4,5-dihydro-3,5-dioxo-1,2,4-triazin-2(3H)-yl)phenyl]-1-methylethyl]-4-phenyl-5-thiazolyl]-phenyl]-1-piperazinecarboxamide monohydrate] | – | 27
CC(C)(c1nc(-c2ccsc2)cs1)c1c(Cl)cc(-n2ncc(=O)[nH]c2=O)cc1Cl [Compound 72, 2-[3,5-dichloro-4-[1-methyl-1-[4-(3-thienyl)-2-thiazolyl]ethyl]phenyl]-1,2,4-triazine-3,5(2H,4H)-dione] | – | 84

Structure (SMILES) | % inh. (percentage inhibition of IL-5 production) [%] | inhibition at 1 µM [%]
CC(C)(c1nc(-c2ccc(Cl)s2)cs1)c1c(Cl)cc(-n2ncc(=O)[nH]c2=O)cc1Cl [Compound 73] | 84 | –
CC(C)(c1nc(-c2ccc([N+](=O)[O-])s2)cs1)c1c(Cl)cc(-n2ncc(=O)[nH]c2=O)cc1Cl [Compound 74] | 76 | –
Cc1ccsc1-c1csc(C(C)(C)c2c(Cl)cc(-n3ncc(=O)[nH]c3=O)cc2Cl)n1 [Compound 75] | 91 | –
Cc1ccc(-c2csc(C(C)(C)c3c(Cl)cc(-n4ncc(=O)[nH]c4=O)cc3Cl)n2)s1 [Compound 76] | 75 | –
CC(C)(c1nc(-c2ccc(Br)s2)cs1)c1c(Cl)cc(-n2ncc(=O)[nH]c2=O)cc1Cl [Compound 77] | 84 | –
CC(C)(c1nc(-c2ccc(C#N)s2)cs1)c1c(Cl)cc(-n2ncc(=O)[nH]c2=O)cc1Cl [Compound 78] | 79 | –
CC(C)(c1nc(-c2csc3ccccc23)cs1)c1c(Cl)cc(-n2ncc(=O)[nH]c2=O)cc1Cl [Compound 79] | 75 | –
CC(C)(c1nc(-c2ccc(N(S(C)(=O)=O)S(C)(=O)=O)s2)cs1)c1c(Cl)cc(-n2ncc(=O)[nH]c2=O)cc1Cl [Compound 81, N-[5-[2-[1-[2,6-dichloro-4-(4,5-dihydro-3,5-dioxo-1,2,4-triazine-2(3H)-yl)phenyl]-1-methylethyl]-4-thiazolyl]-2-thienyl]-N-(methylsulfonyl)methanesulfonamide] | – | 34
CC(C)(c1nc(-c2cccnc2)cs1)c1c(Cl)cc(-n2ncc(=O)[nH]c2=O)cc1Cl [Compound 82] | 85 | –
CC(C)(c1nc(-c2ccco2)cs1)c1c(Cl)cc(-n2ncc(=O)[nH]c2=O)cc1Cl [Compound 83, 2-[3,5-dichloro-4-[1-[4-(2-furanyl)-2-thiazolyl]-1-methylethyl]phenyl]-1,2,4-triazine-3,5(2H,4H)-dione] | – | 78
CC(C)(c1nc(-c2ccc(-c3cccs3)s2)cs1)c1c(Cl)cc(-n2ncc(=O)[nH]c2=O)cc1Cl [Compound 84] | 14 | –
CC(C)(c1noc(-c2ccccc2F)n1)c1c(Cl)cc(-n2ncc(=O)[nH]c2=O)cc1Cl [Compound 86] | 88 | –
Cc1ccccc1-c1nc(C(C)(C)c2c(Cl)cc(-n3ncc(=O)[nH]c3=O)cc2Cl)no1 [Compound 87, 2-[3,5-dichloro-4-[1-methyl-1-[5-(2-methylphenyl)-1,2,4-oxadiazol-3-yl]ethyl]phenyl]-1,2,4-triazine-3,5(2H,4H)-dione] | – | 89
CC(C)(c1noc(-c2ccccc2)n1)c1c(Cl)cc(-n2ncc(=O)[nH]c2=O)cc1Cl [Compound 88, 2-[3,5-dichloro-4-[1-methyl-1-(5-phenyl-1,2,4-oxadiazol-3-yl)ethyl]phenyl]-1,2,4-triazine-3,5(2H,4H)-dione] | – | 94
CC(C)(c1noc(-c2ccccc2Cl)n1)c1c(Cl)cc(-n2ncc(=O)[nH]c2=O)cc1Cl [Compound 89] | 84 | –
CC(C)(c1noc(-c2cccc(F)c2)n1)c1c(Cl)cc(-n2ncc(=O)[nH]c2=O)cc1Cl [Compound 90] | 91 | –
Cc1cccc(-c2nc(C(C)(C)c3c(Cl)cc(-n4ncc(=O)[nH]c4=O)cc3Cl)no2)c1 [Compound 91] | 81 | –
CC(C)(c1noc(-c2cccs2)n1)c1c(Cl)cc(-n2ncc(=O)[nH]c2=O)cc1Cl [Compound 92] | 80 | –
CC(C)(c1noc(-c2cccc(Cl)c2)n1)c1c(Cl)cc(-n2ncc(=O)[nH]c2=O)cc1Cl [Compound 93] | 84 | –
